Assay results as given in ChEMBL document CHEMBL1143941, “Design, synthesis and structure-activity study of shorter hexa peptide analogues as HIV-1 protease inhibitors” (Bioorg Med Chem, 2008).

What follows are compounds tested on Human immunodeficiency virus 1 (assay: Inhibition of recombinant HIV1 protease at 100 ug/ml).

inhibition [%] | Compound
47.2 | H-LLEYVM-OH
64.9 | H-LLEYVW-OH
58.6 | H-LLEYVY-OH
98.5 | CC(=O)N[C@H](C(=O)N[C@H](C(=O)N[C@@H](CC(C)C)[C@@H](O)CC(=O)N[C@@H](C)C(=O)N[C@@H](CC(C)C)[C@@H](O)CC(=O)O)C(C)C)C(C)C
52.3 | H-LLEYVF-OH
